Measurements as given in PMC12548419 (Journal of Virology, 2025).
Values joined by “and” are separate entries in the source; they are usually repeats but may differ in a detail not shown here. Equal entries are not always repeated. Where two headings read alike, the source gives them in different places.

Key:
SFTSV [1] = assay: microbe, parasite or virus in culture; type: cell-based; conditions: for EC50: Severe fever with thrombocytopenia syndrome virus
in vivo [2] = conditions: Sprague-Dawley, rat, po, 10 mg/kg
LCMV [3] = assay: microbe, parasite or virus in culture; type: cell-based, lymphocytic choriomeningitis virus (strain Armstrong); conditions: for EC50: Mammarenavirus choriomeningitidis
in vivo [4] = conditions: cynomolgus monkey, po, 5 mg/kg
SFTSV [5] = test system: SFTSV; design: species or system A129 mice; conditions: mouse, in vivo
LCMV [6] = test system: LCMV; design: species or system C57BL/6-Prf1^tm1Sdz/J mice; conditions: mouse, in vivo
[7] = cynomolgus monkey, in vivo, po, 10.7 mg/kg
LCMV [8] = type: cell-based, lymphocytic choriomeningitis virus
SFTSV [9] = type: cell-based, severe fever with thrombocytopenia syndrome virus
[10] = Sprague-Dawley, rat, in vivo, po, 21 mg/kg
[11] = A549, 48 h, read-out: EC50 (μM) mean ± sd SFTSV A549
[12] = Huh-7, 48 h, read-out: EC50 (μM) mean ± sd SFTSV Huh-7
[13] = Vero, 48 h, read-out: EC50 (μM) mean ± sd SFTSV Vero
[14] = read-out: EC50 range for SFTSV over all cell lines evaluated
[15] = A549, 48 h, read-out: EC50 (μM) mean ± sd LCMV A549
[16] = BHK-21, 48 h, read-out: EC50 (μM) mean ± sd LCMV BHK-21
[17] = Vero, 48 h, read-out: EC50 (μM) mean ± sd LCMV Vero
[18] = read-out: EC50 range for LCMV over all cell lines evaluated

With `O=c1ccn([C@@H]2O[C@](F)(CO)[C@@H](O)[C@H]2O)c(=O)[nH]1` [4′-FlU, 4′-Fluorouridine] the “SI values SFTSV A549” value (SFTSV [1]) was over 210.67, the “SI values SFTSV Huh-7” value (SFTSV [1]) was over 214.23 and the “SI values SFTSV Vero” value (SFTSV [1]) was over 245.98. For the same compound, the EC50 (SFTSV [1]; [11]) was 2.37 ± 0.16 µM, the EC50 (SFTSV [1]; [12]) was 2.33 ± 0.51 µM and the EC50 (SFTSV [1]; [13]) was 2.03 ± 0.82 µM. It also gave an EC50 (SFTSV [1]; [14]) of 2.03 to 2.37 µM, an AUC0-t (in vivo [2]) of 7280 ng·h/mL and a Cmax (in vivo [2]) of 1370 ng/mL. The half-life (in vivo [2]) was 3.39 ± 1.41 h, the “SI values LCMV A549” value (LCMV [3]) was over 4826.57 and the “SI values LCMV BHK-21” value (LCMV [3]) was over 3389.68. The “SI values LCMV Vero” value (LCMV [3]) was over 12697.20, the EC50 (LCMV [3]; [15]) was 0.1 ± 0.01 µM and the EC50 (LCMV [3]; [16]) was 0.15 ± 0.05 µM. For the same compound, the EC50 (LCMV [3]; [17]) was 0.04 ± 0.01 µM, the EC50 (LCMV [3]; [18]) was 0.04 to 0.15 µM and the CC50 (in vitro) was over 500000 nM. The AUC0-t (in vivo [4]) was 10700 ng·h/mL, the Cmax (in vivo [4]) was 1500 ng/mL and the half-life (in vivo [4]) was 6.82 ± 0.46 h.

In the case of `NC(=O)c1nc(F)c[nH]c1=O` [T-705, favipiravir], the “SI values SFTSV A549” value (SFTSV [1]) is reported as over 1.79, the “SI values SFTSV Huh-7” value (SFTSV [1]) is reported as over 160.32 and the “SI values SFTSV Vero” value (SFTSV [1]) is reported as over 24.23. For the same compound, the EC50 (SFTSV [1]; [11]) was 280 µM, the EC50 (SFTSV [1]; [12]) was 3.12 µM and the EC50 (SFTSV [1]; [13]) was 20.6 µM. For the same compound, the “leukopenia, lymphocytopenia and reduction in platelet count (hematological parameters)” value (SFTSV [5]) was “relieved”, the lung pathology scores (SFTSV [5]) was “significantly lower pathology scores” and the spleen histopathology scores (SFTSV [5]) was “substantially reduced”. The “splenomegaly (spleen-to-body weight ratio)” value (SFTSV [5]) was “significantly ameliorated”, the “virus load in the liver, spleen, lung, and kidney (qRT-PCR and immunoplaque assays)” value (SFTSV [5]) was “significant reductions” and the “infectious viral titers in the spleen (immunoplaque assays)” value (SFTSV [5]; 300 mg/kg) was “marked decreases”. The “plasma levels of IFN-γ, TNF-α, IL-1β and IL-6” value (SFTSV [5]; 300 mg/kg) was “significantly reduced”, the “viral RNA copies in the spleen (qRT-PCR)” value (SFTSV [5]; 300 mg/kg) was “no statistically significant reduction” and the body weight (SFTSV [5]; po, 300 mg/kg) was “slight initial weight loss followed by weight recovery at 5 days post-infection”. The survival (SFTSV [5]; po, 300 mg/kg) was “survived”, the “SI values LCMV A549” value (LCMV [3]) was over 7.36 and the “SI values LCMV Vero” value (LCMV [3]) was over 5.64. The EC50 (LCMV [3]; [15]) was 68 µM, the EC50 (LCMV [3]; [17]) was 88.6 µM and the CC50 (in vitro) was over 500000 nM. For the same compound, the body weight (LCMV [6]) was “parallel body weight with that of the vehicle-treated group”, the “spleen damage (spleen size, pathology score, H&E staining)” value (LCMV [6]) was “marked pathological lesions” and the “viral RNA copies in the liver, spleen, lung, and kidney (qRT-PCR)” value (LCMV [6]) was “no reduction in the number of viral RNA copies was observed except in the lungs”. For the same compound, the “viral titer in the liver, spleen, lung, and kidney (immunoplaque assay)” value (LCMV [6]) was “reduced the viral titer in the tissues”, the “plasma IFN-γ and granulocyte colony-stimulating factor” value (LCMV [6]; 300 mg/kg) was “no significant effect” and the survival (LCMV [6]; po, 300 mg/kg) was “no survivors remaining by the end of the study”.

For `CC(=O)OC[C@@]1(F)O[C@@H](n2ccc(=O)n(COC(=O)c3cccnc3)c2=O)[C@H](OC(C)=O)[C@@H]1OC(C)=O` [VV251], the “SI values SFTSV A549” value (SFTSV [1]) was over 96.94, the “SI values SFTSV Vero” value (SFTSV [1]) was over 168.75 and the EC50 (SFTSV [1]; [11]) was 5.16 µM. For the same compound, the EC50 (SFTSV [1]; [12]) was 0.65 µM, the EC50 (SFTSV [1]; [13]) was 2.96 µM and the EC50 (SFTSV [1]; [14]) was 0.65 to 5.16 µM. The AUC0-t [7] was 14,922 ng·h/mL, the Cmax [7] was 2,358 ng/mL and the T1/2 [7] was 5.45 ± 0.82 h. The “leukopenia, lymphocytopenia and reduction in platelet count (hematological parameters)” value (SFTSV [5]) was “relieved”, the lung pathology scores (SFTSV [5]) was “significantly lower pathology scores” and the “plasma levels of IFN-γ, TNF-α, IL-1β and IL-6” value (SFTSV [5]) was “significantly reduced”. For the same compound, the spleen histopathology scores (SFTSV [5]) was “substantially reduced”, the “splenomegaly (spleen-to-body weight ratio)” value (SFTSV [5]) was “significantly ameliorated” and the “virus load in the liver, spleen, lung, and kidney (qRT-PCR and immunoplaque assays)” value (SFTSV [5]) was “significant reductions”. For the same compound, the body weight (SFTSV [5]; po, 1 mg/kg) was “significant reduction in body weight”, the survival (SFTSV [5]; po, 1 mg/kg) was “only one mouse surviving until the end of the study” and the mice that died (SFTSV [5]; po, 5 mg/kg) was “one”. The body weight (SFTSV [5]; po, 10 mg/kg) was “remained stable”, the “antiviral effect on addition of exogenous natural nucleosides” value (LCMV [8]) was “competitively reversed by supplementation with exogenous uridine and cytidine” and the “SI values LCMV A549” value (LCMV [3]) was over 6559.96. The “SI values LCMV BHK-21” value (LCMV [3]) was over 3177.56, the “SI values LCMV Vero” value (LCMV [3]) was over 3628.85 and the “fold lower EC50 than T-705 against LCMV” value (LCMV [3]) was 849.6 fold and 632.9 fold. For the same compound, the EC50 (LCMV [3]; [15]) was 0.08 µM, the EC50 (LCMV [3]; [16]) was 0.16 ± 0.05 µM and the EC50 (LCMV [3]; [17]) was 0.14 µM. For the same compound, the EC50 (LCMV [3]; [18]) was 0.08 to 0.16 µM, the CC50 (in vitro) was over 500000 nM and the “antiviral effect on addition of exogenous natural nucleosides” value (SFTSV [9]) was “competitively reversed by supplementation with exogenous uridine and cytidine”. For the same compound, the AUC0-t [10] was 9,714 ng·h/mL, the Cmax [10] was 1,598 ng/mL and the T1/2 [10] was 6.34 ± 0.75 h. For the same compound, the body weight (LCMV [6]) was “remained stable”, the “hematological parameters (white blood cell, platelet, lymphocyte count)” value (LCMV [6]) was “ameliorated viremia induced by LCMV infection” and the “number of viral RNA copies relative to the vehicle group” value (LCMV [6]) was “more than one order of magnitude lower”. The “plasma IFN-γ and granulocyte colony-stimulating factor” value (LCMV [6]) was “statistically significant reduction”, the “spleen damage (spleen size, pathology score, H&E staining)” value (LCMV [6]) was “ameliorated spleen damage efficiently” and the “viral RNA copies in the liver, spleen, lung, and kidney (qRT-PCR)” value (LCMV [6]) was “significantly decreased”. For the same compound, the “viral titer in the liver, spleen, lung, and kidney (immunoplaque assay)” value (LCMV [6]) was “significantly decreased”.
